Reference: patent US12077503B2, “Substituted cyclic amides and their use as herbicides” (FMC CORPORATION, priority 2015, dated 2024)

Tests used:
Format in all cases: in vivo
[1] = tested on: barnyardgrass (Echinochloa crus-galli); experiment: Test B flooded paddy test; details: Echinochloa crus-galli, 250 g ai/ha, Flood; 0 to 100 scale where 0 is no effect and 100 is complete control; read-out: Barnyardgrass plant response rating
Method in brief: (§1)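 Response scored visually against untreated controls, 0 = no effect and 100 = complete control, 13–15 d after treatment in the greenhouse. Compounds added to paddy water held 3 cm above soil surface. Treatment given at 2-leaf stage.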

[2] = tested on: sedge, umbrella (small-flower umbrella sedge, Cyperus difformis); experiment: Test B flooded paddy test; details: Cyperus difformis, 250 g ai/ha, Flood; 0 to 100 scale where 0 is no effect and 100 is complete control; read-out: Sedge, Umbrella plant response rating
Method in brief: as §1

[3] = tested on: ducksalad (Heteranthera limosa); experiment: Test B flooded paddy test; details: Heteranthera limosa, 250 g ai/ha, Flood; 0 to 100 scale where 0 is no effect and 100 is complete control; read-out: Ducksalad plant response rating
Method in brief: as §1

rice (Oryra sativa) = experiment: Test B flooded paddy test; details: Oryza sativa, 250 g ai/ha, Flood; 0 to 100 scale where 0 is no effect and 100 is complete control; read-out: Rice plant response rating
Method in brief: as §1

[4] = tested on: barnyardgrass (Echinochloa crus-galli); experiment: Test A postemergence; details: Echinochloa crus-galli, post-emergence, 240 h; for pest or weed control at 125 g/ha: 125 g ai/ha, postemergence, visual injury on 0 to 100 scale (0 no effect, 100 complete control), approx. 10 d, read-out: Barnyardgrass plant response rating; for pest or weed control at 31 g/ha: Postemergence, 31 g ai/ha, visual injury after approx. 10 d, 0 to 100 scale, 0 no effect, 100 complete control, read-out: Plant response rating, Barnyardgrass
Method in brief: (§2)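 Visual injury, scored on a 0–100 scale relative to untreated controls, was recorded about 10 d after application. Treatments were a preemergence soil spray over planted seeds or a postemergence spray on plants at the one- to two-leaf stage, 2 to 10 cm tall, all in loam soil–sand blend in the greenhouse.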

[5] = tested on: blackgrass (Alopecurus myosuroides); experiment: Test A postemergence; details: Alopecurus myosuroides, post-emergence, 240 h; for pest or weed control at 125 g/ha: 125 g ai/ha, postemergence, visual injury on 0 to 100 scale (0 no effect, 100 complete control), approx. 10 d, read-out: Blackgrass plant response rating; for pest or weed control at 31 g/ha: Postemergence, 31 g ai/ha, visual injury after approx. 10 d, 0 to 100 scale, 0 no effect, 100 complete control, read-out: Plant response rating, Blackgrass
Method in brief: as §2

corn (Zea mays) = experiment: Test A postemergence; details: Zea mays, post-emergence, 240 h; for plant injury at 125 g/ha: 125 g ai/ha, postemergence, visual injury on 0 to 100 scale (0 no effect, 100 complete control), approx. 10 d, read-out: Corn plant response rating; for Corn plant response rating (crop injury, 0 = no effect, 100 = complete kill) at 31 g/ha: Postemergence, 31 g ai/ha, visual injury after approx. 10 d, 0 to 100 scale, 100 complete control
Method in brief: as §2

[6] = tested on: pigweed (Amaranthus retroflexus); experiment: Test A postemergence; details: Amaranthus retroflexus, post-emergence, 240 h; for pest or weed control at 125 g/ha: 125 g ai/ha, postemergence, visual injury on 0 to 100 scale (0 no effect, 100 complete control), approx. 10 d, read-out: Pigweed plant response rating; for pest or weed control at 31 g/ha: Postemergence, 31 g ai/ha, visual injury after approx. 10 d, 0 to 100 scale, 0 no effect, 100 complete control, read-out: Plant response rating, Pigweed
Method in brief: as §2

Kochia (Kochia scoparia) [7] = experiment: Test A postemergence; details: Bassia scoparia, post-emergence, 240 h; for pest or weed control at 125 g/ha: 125 g ai/ha, postemergence, visual injury on 0 to 100 scale (0 no effect, 100 complete control), approx. 10 d, read-out: Kochia plant response rating; for pest or weed control at 31 g/ha: Postemergence, 31 g ai/ha, visual injury after approx. 10 d, 0 to 100 scale, 0 no effect, 100 complete control, read-out: Plant response rating, Kochia
Method in brief: as §2

[8] = tested on: ryegrass, Italian (Italian ryegrass, Lolium multiflorum); experiment: Test A postemergence; details: Lolium multiflorum, post-emergence, 240 h; for pest or weed control at 125 g/ha: 125 g ai/ha, postemergence, visual injury on 0 to 100 scale (0 no effect, 100 complete control), approx. 10 d, read-out: Ryegrass, Italian plant response rating; for pest or weed control at 31 g/ha: Postemergence, 31 g ai/ha, visual injury after approx. 10 d, 0 to 100 scale, 0 no effect, 100 complete control, read-out: Plant response rating, Ryegrass, Italian
Method in brief: as §2

[9] = tested on: giant foxtail (Setaria faberii); experiment: Test A postemergence; details: Setaria faberi, post-emergence, 240 h; for pest or weed control at 125 g/ha: 125 g ai/ha, postemergence, visual injury on 0 to 100 scale (0 no effect, 100 complete control), approx. 10 d, read-out: Foxtail, Giant plant response rating; for pest or weed control at 31 g/ha: Postemergence, 31 g ai/ha, visual injury after approx. 10 d, 0 to 100 scale, 0 no effect, 100 complete control, read-out: Plant response rating, Foxtail, Giant
Method in brief: as §2

[10] = tested on: Galium (catchweed bedstraw, Galium aparine); experiment: Test A postemergence; details: Galium, post-emergence, 240 h; for pest or weed control at 125 g/ha: 125 g ai/ha, postemergence, visual injury on 0 to 100 scale (0 no effect, 100 complete control), approx. 10 d, read-out: Galium plant response rating; for pest or weed control at 31 g/ha: Postemergence, 31 g ai/ha, visual injury after approx. 10 d, 0 to 100 scale, 0 no effect, 100 complete control, read-out: Plant response rating, Galium
Method in brief: as §2

[11] = tested on: ragweed (common ragweed, Ambrosia elatior); experiment: Test A postemergence; details: Ambrosia artemisiifolia, post-emergence, 240 h; for pest or weed control at 125 g/ha: 125 g ai/ha, postemergence, visual injury on 0 to 100 scale (0 no effect, 100 complete control), approx. 10 d, read-out: Ragweed plant response rating; for pest or weed control at 31 g/ha: Postemergence, 31 g ai/ha, visual injury after approx. 10 d, 0 to 100 scale, 0 no effect, 100 complete control, read-out: Plant response rating, Ragweed
Method in brief: as §2

[12] = tested on: wheat (Triticum aestivum); experiment: Test A postemergence; details: Triticum aestivum, post-emergence, 240 h; for plant injury at 125 g/ha: 125 g ai/ha, postemergence, visual injury on 0 to 100 scale (0 no effect, 100 complete control), approx. 10 d, read-out: Wheat plant response rating; for plant injury at 31 g/ha: Postemergence, 31 g ai/ha, visual injury after approx. 10 d, 0 to 100 scale, 0 no effect, 100 complete control, read-out: Plant response rating, Wheat
Method in brief: as §2

[13] = tested on: barnyardgrass (Echinochloa crus-galli); experiment: Test A preemergence; details: Echinochloa crus-galli, pre-emergence, 240 h, Preemergence; for pest or weed control at 125 g/ha: 125 g ai/ha, visual injury rating after approximately 10 d, read-out: Barnyardgrass plant response rating (0 to 100 scale, 0 is no effect, 100 is complete control); for pest or weed control at 31 g/ha: 31 g ai/ha, 0 to 100 scale (0 no effect, 100 complete control), read-out: Plant response rating, Barnyardgrass
Method in brief: as §2

[14] = tested on: pigweed (Amaranthus retroflexus); experiment: Test A preemergence; details: Amaranthus retroflexus, pre-emergence, 240 h, Preemergence; for pest or weed control at 31 g/ha: 31 g ai/ha, 0 to 100 scale where 0 is no effect and 100 is complete control, read-out: Pigweed plant response rating; for pest or weed control at 125 g/ha: 125 g ai/ha, visual injury rating after approximately 10 d, read-out: Pigweed plant response rating (0 to 100 scale, 0 is no effect, 100 is complete control)
Kochia (Kochia scoparia) [15] = experiment: Test A preemergence; details: Bassia scoparia, pre-emergence, 240 h, Preemergence; for pest or weed control at 31 g/ha: 31 g ai/ha, 0 to 100 scale where 0 is no effect and 100 is complete control, read-out: Kochia plant response rating; for pest or weed control at 125 g/ha: 125 g ai/ha, visual injury rating after approximately 10 d, read-out: Kochia plant response rating (0 to 100 scale, 0 is no effect, 100 is complete control)
Method in brief: as §2

[16] = tested on: ryegrass, Italian (Italian ryegrass, Lolium multiflorum); experiment: Test A preemergence; details: Lolium multiflorum, pre-emergence, 240 h, Preemergence; for pest or weed control at 31 g/ha: 31 g ai/ha, 0 to 100 scale where 0 is no effect and 100 is complete control, read-out: Ryegrass, Italian plant response rating; for pest or weed control at 125 g/ha: 125 g ai/ha, visual injury rating after approximately 10 d, read-out: Ryegrass, Italian plant response rating (0 to 100 scale, 0 is no effect, 100 is complete control)
Method in brief: as §2

[17] = tested on: giant foxtail (Setaria faberii); experiment: Test A preemergence; details: Setaria faberi, pre-emergence, 240 h, Preemergence; for pest or weed control at 125 g/ha: 125 g ai/ha, visual injury rating after approximately 10 d, read-out: Foxtail, Giant plant response rating (0 to 100 scale, 0 is no effect, 100 is complete control); for pest or weed control at 31 g/ha: 31 g ai/ha, 0 to 100 scale (0 no effect, 100 complete control), read-out: Plant response rating, Foxtail, Giant
Method in brief: as §2

[18] = tested on: ragweed (common ragweed, Ambrosia elatior); experiment: Test A preemergence; details: Ambrosia artemisiifolia, pre-emergence, 240 h, Preemergence; for pest or weed control at 31 g/ha: 31 g ai/ha, 0 to 100 scale where 0 is no effect and 100 is complete control, read-out: Ragweed plant response rating; for pest or weed control at 125 g/ha: 125 g ai/ha, visual injury rating after approximately 10 d, read-out: Ragweed plant response rating (0 to 100 scale, 0 is no effect, 100 is complete control)
Method in brief: as §2

| Structure (SMILES) | pest or weed control at 250 g/ha [1] | pest or weed control at 250 g/ha [2] | pest or weed control at 250 g/ha [3] | pest or weed control at 250 g/ha (rice (Oryra sativa)) | pest or weed control at 125 g/ha [4] | pest or weed control at 31 g/ha [4] | pest or weed control at 125 g/ha [5] | pest or weed control at 31 g/ha [5] | plant injury at 125 g/ha (corn (Zea mays)) | Corn plant response rating (crop injury, 0 = no effect, 100 = complete kill) at 31 g/ha (corn (Zea mays)) | pest or weed control at 125 g/ha [6] | pest or weed control at 31 g/ha [6] | pest or weed control at 125 g/ha (Kochia (Kochia scoparia) [7]) | pest or weed control at 31 g/ha (Kochia (Kochia scoparia) [7]) | pest or weed control at 125 g/ha [8] | pest or weed control at 31 g/ha [8] | pest or weed control at 125 g/ha [9] | pest or weed control at 31 g/ha [9] | pest or weed control at 125 g/ha [10] | pest or weed control at 31 g/ha [10] | further results |
| --- | --- | --- | --- | --- | --- | --- | --- | --- | --- | --- | --- | --- | --- | --- | --- | --- | --- | --- | --- | --- | --- |
| CSc1ccccc1NC(=O)[C@H]1C(=O)NC[C@@H]1c1ccc(C(F)(F)F)cn1 [Compound 1050] | 0% | 0% | 85% | 0% | 0% | 0% | 0% | 0% | 0% | 0% | 0% | 0% | 0% | 0% | 0% | 0% | 0% | 0% | 0% | 0% | pest or weed control at 125 g/ha [11]: 0%; pest or weed control at 31 g/ha [11]: 0%; plant injury at 125 g/ha [12]: 0%; plant injury at 31 g/ha [12]: 0%; pest or weed control at 125 g/ha [13]: 0%; pest or weed control at 31 g/ha [13]: 0%; pest or weed control at 31 g/ha [14]: 0%; pest or weed control at 125 g/ha [14]: 0%; pest or weed control at 31 g/ha (Kochia (Kochia scoparia) [15]): 0%; pest or weed control at 125 g/ha (Kochia (Kochia scoparia) [15]): 0%; pest or weed control at 31 g/ha [16]: 0%; pest or weed control at 125 g/ha [16]: 0%; pest or weed control at 125 g/ha [17]: 0%; pest or weed control at 31 g/ha [17]: 0%; pest or weed control at 31 g/ha [18]: 0%; pest or weed control at 125 g/ha [18]: 0% |
| CN1C[C@H](c2ccc(C(F)(F)F)cn2)[C@@H](C(=O)Nc2cccc(F)c2F)C1=O [Compound 1052] | 85% | 0% | 100% | 0% | 80% | 30% | 20% | 0% | 0% | 0% | 30% | 0% | 40% | 0% | 20% | 0% | 70% | 30% | 70% | 40% | pest or weed control at 125 g/ha [11]: 30%; pest or weed control at 31 g/ha [11]: 0%; plant injury at 125 g/ha [12]: 0%; plant injury at 31 g/ha [12]: 0%; pest or weed control at 125 g/ha [13]: 90%; pest or weed control at 31 g/ha [13]: 30%; pest or weed control at 31 g/ha [14]: 40%; pest or weed control at 125 g/ha [14]: 80%; pest or weed control at 31 g/ha (Kochia (Kochia scoparia) [15]): 20%; pest or weed control at 125 g/ha (Kochia (Kochia scoparia) [15]): 70%; pest or weed control at 31 g/ha [16]: 0%; pest or weed control at 125 g/ha [16]: 30%; pest or weed control at 125 g/ha [17]: 90%; pest or weed control at 31 g/ha [17]: 80%; pest or weed control at 31 g/ha [18]: 0%; pest or weed control at 125 g/ha [18]: 20% |
